By IC50 is commonly meant the concentration at which inhibition is half-maximal.

The text below walks through data of publication PMC9607164, “Rational Design, Synthesis and Biological Evaluation of Novel Pyrazoline-Based Antiproliferative Agents in MCF-7 Cancer Cells” (Pharmaceuticals, 2022).

One series deals with MCF-7 cancer cells. Put plainly: MTT cytotoxicity assay on MCF-7. In kind it is cell-based. Particulars: for LogIC50 MCF-7: Figure 4 curve fit, cell viability vs. log [conc. µM]; for IC50: MTT assay, 48 h, n = 3, NA: Non-Active, read-out: IC50 ± SD, MCF-7. Here is the method: (§1) Both breast cancer (MCF-7) and normal breast (MCF-10A) cells were purchased from National Research Institute, Egypt, and maintained in complete media of RPMI-1640 medium L-Glutamine (Lonza Verviers SPRL, Belgium, cat#12-604F). Cells were incubated following standard tissue culture work. Cell viability was measured 48 h later, utilizing MTT colorimetric assay (Promega, Madison, WI, USA). Absorbance was consequently assessed (at 570 nm) using an ELISA microplate reader (BIO-RAD, model iMark, Tokyo, Japan). Using GraphPad Prism 7, the IC50 values were determined, and the viability at each concentration was determined in comparison to the control.
Background: Formazan colour is commonly taken as a measure of viable cells.

In series [1] the test system is MCF-10A normal breast cells. The series is described as follows: MTT cytotoxicity assay on MCF-10A. In kind it is cell-based. Particulars: Homo sapiens, 48 h, n = 3, read-out: IC50 ± SD, MCF-10A. Here is the method: as §1
The next series concerns the target T1, EGFR Kinase (Homo sapiens, UniProt P00533).
T1 construct: purchased BPS Bioscience 40321
Put plainly: EGFR Kinase Assay Kit (BPS Bioscience). In kind it is biochemical. The following applies: mean ± SD of three replicates, five concentrations. How it is done: (§2) Compounds’ autophosphorylation percentage inhibition was computed according to the following equation: […] , then IC50 values were calculated using GraphPad prism software.

In series [2] the test system is MCF-7 cells. The series is described as follows: Annexin V/PI staining flow cytometry. Type of series: cell-based. The following applies: MCF-7, treated at IC50, 48 h; for late apoptosis: AV+/PI+; for early apoptosis: AV+/PI−; for apoptotic cell death (total): control 0.68%. Here is the method:
MCF-7 breast cancer cells were seeded into 6-well culture plates (3–5 × 10^5 cells/well) and incubated for 24 h. […] After that, the collection of the media supernatants and the cells was performed before undergoing rinsing with ice-cold PBS. The cells were suspended in 100 µL of annexin-binding buffer solution “25 mM CaCl2, 1.4 M NaCl, and 0.1 M Hepes/NaOH, pH 7.4” and incubated with “Annexin V-FITC solution (1:100) and propidium iodide (PI)” at a concentration equal 10 µg/mL in the dark for 30 min. Stained cells were then obtained by a Cytoflex FACS machine, and data analysis was performed using cytExpert software.
For orientation: A flow cytometer gives signals particle by particle.

The test system of series [3] is MCF-7 cells. The series is described as follows: DNA content flow cytometry cell cycle analysis. In kind it is cell-based. The following applies: MCF-7 after treatment.
The subject of a further series is Bax. Put plainly: RT-PCR gene expression in MCF-7 cells. Type of series: cell-based. Particulars: MCF-7, IC50, 48 h, normalized to β-actin, untreated = 1. How it is done: (§3) Furthermore, to explore the apoptotic pathway, gene expression of proapoptotic genes (P53, Bax, Caspapses-3,8,9) and antiapoptotic gene (Bcl-2) was evaluated using routine RT-PCR in the untreated and treated MCF-7 cells. Ct values were calculated to determine the relative genes expression in all samples by normalization to β-actin (housekeeping gene).

The test system of a further series is Bcl-2. The series is described as follows: RT-PCR gene expression in MCF-7 cells. Type of series: cell-based. Particulars: MCF-7, IC50, 48 h, normalized to β-actin, untreated = 1. How it is done: as §3
The test system of another series is Casp-3. Put plainly: RT-PCR gene expression in MCF-7 cells. The following applies: MCF-7, IC50, 48 h, normalized to β-actin, untreated = 1. In kind it is cell-based. Here is the method: as §3
A further series relates to Casp-8. The series is described as follows: RT-PCR gene expression in MCF-7 cells. Type of series: cell-based. The following applies: MCF-7, IC50, 48 h, normalized to β-actin, untreated = 1. Here is the method:
as §3

For another series, the system named is Casp-9. Put plainly: RT-PCR gene expression in MCF-7 cells. In kind it is cell-based. The following applies: MCF-7, IC50, 48 h, normalized to β-actin, untreated = 1. Here is the method:
as §3

The test system of the next series is P53. Put plainly: RT-PCR gene expression in MCF-7 cells. The following applies: MCF-7, IC50, 48 h, normalized to β-actin, untreated = 1. Type of series: cell-based. Here is the method:
as §3

Series [4] relates to MCF-7 cells (Xenograft model). In kind it is in vivo, mice. Particulars: 10 mg/kg BW, IP. The text has this: In vivo experiments for lethal dose (LD50), experimental design, tumor mass, blood parameters, histopathological examinations were accomplished as previously described. After inoculating the tumor cells, masses of the solid tumor started to appear ten days later. […] Animals from each group were sacrificed, and their blood was drawn to measure hemoglobin (Hb), red blood cell (RBC), white blood cell (WBC), and liver enzymes (ALT, AST, albumin, and total protein) levels.

Series [5] is classed as in vivo. The text has this: In vivo experiments for lethal dose (LD50), experimental design, tumor mass, blood parameters, histopathological examinations were accomplished as previously described. After inoculating the tumor cells, masses of the solid tumor started to appear ten days later. […]. Animals from each group were sacrificed, and their blood was drawn to measure hemoglobin (Hb), red blood cell (RBC), white blood cell (WBC), and liver enzymes (ALT, AST, albumin, and total protein) levels.

In the next series the target is T2, HER2 Kinase (Homo sapiens, UniProt P04626).
T2 construct: purchased BPS Bioscience 40721
The series is described as follows: HER2 Kinase Assay Kit (BPS Bioscience). The following applies: mean ± SD of three replicates, five concentrations. Type of series: biochemical. How it is done:
as §2

The subject of the next series is mutant EGFR (L858R). Further details: method as in PMID 35427766. Particulars: allosteric inhibitor; cited from earlier work.
In the next series the test system is EGFR. Also on record: method as in PMID 33872924. The following applies: reported phenylthiazole derivative; cited from earlier work.

Several values for one entry are separate records, joined by “and”; a condition that tells them apart may be missing. Equal values may be shown once. Read-outs that look alike come from different tables or passages of the source. A value given as a limit tells only on which side of the number the result lay.

T1 sequence (P00533 25-1210): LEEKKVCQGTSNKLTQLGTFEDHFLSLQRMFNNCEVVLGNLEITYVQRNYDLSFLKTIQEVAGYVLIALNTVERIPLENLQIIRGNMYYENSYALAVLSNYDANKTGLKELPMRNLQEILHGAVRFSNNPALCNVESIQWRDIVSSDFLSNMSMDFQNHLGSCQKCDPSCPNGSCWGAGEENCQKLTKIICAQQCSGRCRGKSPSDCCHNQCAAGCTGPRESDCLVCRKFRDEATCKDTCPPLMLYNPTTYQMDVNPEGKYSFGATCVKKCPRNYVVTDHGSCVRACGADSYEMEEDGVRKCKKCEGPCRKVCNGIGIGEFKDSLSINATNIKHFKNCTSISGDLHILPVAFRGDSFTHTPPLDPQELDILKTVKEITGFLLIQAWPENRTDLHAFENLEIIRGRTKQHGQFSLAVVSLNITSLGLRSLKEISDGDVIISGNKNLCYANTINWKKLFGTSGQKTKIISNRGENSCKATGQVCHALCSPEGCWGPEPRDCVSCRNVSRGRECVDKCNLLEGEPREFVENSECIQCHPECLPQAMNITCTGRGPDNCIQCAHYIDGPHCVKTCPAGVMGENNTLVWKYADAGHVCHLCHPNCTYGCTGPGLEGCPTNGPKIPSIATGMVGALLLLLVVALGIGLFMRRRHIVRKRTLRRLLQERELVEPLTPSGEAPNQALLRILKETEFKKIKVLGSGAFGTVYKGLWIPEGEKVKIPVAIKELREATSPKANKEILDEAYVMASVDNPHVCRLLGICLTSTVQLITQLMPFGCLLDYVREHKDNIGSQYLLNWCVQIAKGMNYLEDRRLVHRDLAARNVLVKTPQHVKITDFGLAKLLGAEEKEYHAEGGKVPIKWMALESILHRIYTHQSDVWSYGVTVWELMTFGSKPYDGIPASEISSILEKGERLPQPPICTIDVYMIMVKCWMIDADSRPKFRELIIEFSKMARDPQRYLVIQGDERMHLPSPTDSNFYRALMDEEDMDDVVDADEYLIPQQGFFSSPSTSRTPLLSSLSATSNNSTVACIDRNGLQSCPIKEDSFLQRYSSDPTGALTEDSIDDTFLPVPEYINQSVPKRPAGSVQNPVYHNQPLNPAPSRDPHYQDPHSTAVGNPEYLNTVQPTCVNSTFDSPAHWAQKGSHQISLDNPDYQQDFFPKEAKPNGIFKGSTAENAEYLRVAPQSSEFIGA
T2 sequence (P04626 23-1255): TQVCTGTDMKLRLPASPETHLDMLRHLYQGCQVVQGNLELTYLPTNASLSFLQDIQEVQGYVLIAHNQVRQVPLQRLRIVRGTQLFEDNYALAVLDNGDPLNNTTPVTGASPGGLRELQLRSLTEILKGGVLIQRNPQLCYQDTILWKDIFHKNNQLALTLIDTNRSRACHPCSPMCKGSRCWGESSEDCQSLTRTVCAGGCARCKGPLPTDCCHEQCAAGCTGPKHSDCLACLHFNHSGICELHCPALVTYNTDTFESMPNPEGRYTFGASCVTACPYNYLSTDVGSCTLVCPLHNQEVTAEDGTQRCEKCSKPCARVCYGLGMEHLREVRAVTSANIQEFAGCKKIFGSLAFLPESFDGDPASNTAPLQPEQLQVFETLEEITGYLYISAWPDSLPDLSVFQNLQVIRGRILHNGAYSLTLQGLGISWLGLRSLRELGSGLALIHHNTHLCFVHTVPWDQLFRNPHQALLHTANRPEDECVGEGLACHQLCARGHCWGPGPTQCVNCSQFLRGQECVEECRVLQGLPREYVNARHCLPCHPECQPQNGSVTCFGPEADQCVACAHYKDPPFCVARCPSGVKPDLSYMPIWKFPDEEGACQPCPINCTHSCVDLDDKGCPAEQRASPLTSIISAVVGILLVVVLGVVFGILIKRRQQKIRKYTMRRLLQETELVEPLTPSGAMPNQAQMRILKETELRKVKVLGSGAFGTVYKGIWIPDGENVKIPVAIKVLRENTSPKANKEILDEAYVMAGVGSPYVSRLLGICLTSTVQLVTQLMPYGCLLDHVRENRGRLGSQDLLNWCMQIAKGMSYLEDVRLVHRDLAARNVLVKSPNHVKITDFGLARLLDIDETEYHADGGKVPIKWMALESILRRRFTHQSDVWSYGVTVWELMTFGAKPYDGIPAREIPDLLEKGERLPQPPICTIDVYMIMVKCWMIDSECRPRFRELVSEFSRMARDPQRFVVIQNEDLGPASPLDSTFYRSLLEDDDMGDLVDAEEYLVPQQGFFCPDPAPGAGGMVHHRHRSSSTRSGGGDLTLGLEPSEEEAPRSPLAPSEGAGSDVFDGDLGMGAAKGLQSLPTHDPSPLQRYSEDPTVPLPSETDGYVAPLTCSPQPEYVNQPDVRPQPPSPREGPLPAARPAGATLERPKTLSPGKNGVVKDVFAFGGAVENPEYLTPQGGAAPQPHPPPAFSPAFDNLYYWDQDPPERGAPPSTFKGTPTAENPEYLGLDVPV

Regarding `COc1ccc(C2CC(c3ccc(OC)c(OC)c3)=NN2c2nc(-c3ccccc3)cs2)cc1` (stereo not shown) [Compound 6e, 2-(3-(3,4-Dimethoxyphenyl)-5-(4-methoxyphenyl)-4,5-dihydro-1H-pyrazol-1-yl)-4-phenylthiazole], in the series on MCF-7 cancer cells, the “LogIC50 MCF-7” value is given as 0.862 and the IC50 worked out at 7.21 ± 0.48 µM. For the same molecule, the IC50 in the series with MCF-7 cancer cells (Homo sapiens, MCF7, 48 h) stood at 7.28 µM. For the same molecule, the IC50 in [1] was at least 50 µM. Further, on EGFR Kinase, the IC50 was found to be 0.009 ± 0.001 µM. Also, in the series on MCF-7 cells [2], the late apoptosis is recorded as 18.52%, the early apoptosis is 9.47% and the “apoptotic cell death (total)” value is recorded as 27.99%. Moreover, in the series with MCF-7 cells [3] (control 34.18), the “percentage of cells in the S phase” value is given as 44.52%. The “Fold Change = 2^−ΔΔCT, Bax” value with Bax is 6.39 fold and 6.39 ± 0.8 fold. Moreover, the “Fold Change = 2^−ΔΔCT, Bcl-2” value with Bcl-2 is given as 0.22 ± 0.06 fold. In addition, the “Fold Change = 2^−ΔΔCT, Casp-3” value with Casp-3 is 7.12 fold and 7.12 ± 0.53 fold. In the series with Casp-8, the “Fold Change = 2^−ΔΔCT, Casp-8” value is 1.71 fold and 1.71 ± 0.18 fold. Further, the “Fold Change = 2^−ΔΔCT, Casp-9” value in the series on Casp-9 was 8.19 fold and 8.19 ± 0.32 fold. The “Fold Change = 2^−ΔΔCT, P53” value in the series with P53 is on record as 4.85 ± 0.4 fold. Further, the tumor inhibition ratio in series [4] (seven administrations) is 52.46%. In series [4] (decreased from 89.8), this molecule had a tumor volume of 28.4 mm^3. The mice weight in series [5] (10 mg/kg BW, IP, MCF-7 control 32.28 g, normal 24.5 g) is recorded as 28.23 g. Also, the “histopathological examination of liver sections” value in series [5] (mouse, in vivo) is recorded as “normal nuclei morphology in most of the cells with slight hydrophobic degeneration”.
On to `COc1ccc(C2=NN(c3nc(-c4ccc(F)cc4)cs3)C(c3ccc(Cl)cc3)C2)cc1OC` (stereo not shown) [Compound 6k, 2-(5-(4-Chlorophenyl)-3-(3,4-dimethoxyphenyl)-4,5-dihydro-1H-pyrazol-1-yl)-4-(4-fluorophenyl)thiazole], for which, in the series with MCF-7 cancer cells, the “LogIC50 MCF-7” value amounted to 0.9042. The IC50 in the series with MCF-7 cancer cells (Homo sapiens, MCF7, 48 h) is 8.02 µM; with MCF-7 cancer cells, 8.02 ± 0.98 µM; in series [1] it was at least 50 µM; against EGFR Kinase, 0.014 ± 0.001 µM; at HER2 Kinase it was 0.027 ± 0.002 µM. This molecule displayed a late apoptosis with MCF-7 cells [2] of 14.38%. The same molecule displayed an early apoptosis with MCF-7 cells [2] of 8.06%. In the series on MCF-7 cells [2], the “apoptotic cell death (total)” value is 22.44%. The “percentage of cells in the G2/M phase” value in the series with MCF-7 cells [3] (printed 'reduced by', control 9.7%) is 2.01%. For the same molecule, the “Fold Change = 2^−ΔΔCT, Bax” value in the series on Bax is 5.24 fold and 5.24 ± 0.4 fold. Further, the “Fold Change = 2^−ΔΔCT, Bcl-2” value in the series with Bcl-2 was 0.41 fold and 0.41 ± 0.09 fold. For the same molecule, the “Fold Change = 2^−ΔΔCT, Casp-3” value in the series with Casp-3 is 5.79 fold and 5.79 ± 0.4 fold. For the same molecule, in the series on Casp-8, the “Fold Change = 2^−ΔΔCT, Casp-8” value is 3.91 fold and 3.91 ± 0.42 fold. In addition, in the series on Casp-9, the “Fold Change = 2^−ΔΔCT, Casp-9” value is 6.07 fold and 6.07 ± 0.23 fold. Besides, the “Fold Change = 2^−ΔΔCT, P53” value in the series on P53 is 3.91 fold and 3.91 ± 0.50 fold.
`O=C(Nc1nccs1)C(c1cc(F)ccc1O)N1Cc2ccccc2C1=O` (stereo not shown) [EAI045]: in the series with mutant EGFR (L858R), the IC50 is 0.019 µM.
As to `COc1ccc(-c2csc(NC(=O)CSc3nc(-c4ccc(OC)cc4)c(C#N)c(=O)[nH]3)n2)cc1` [VI], the IC50 with EGFR is 0.19 µM.
